In patent publication US8143263B2, “Therapeutic agents” (Astrazeneca AB, priority 2008, dated 2012) one finds EC50 data, which are given here for 30 compounds.

In the test the target is T1, recombinant human pancreatic GLK (Homo sapiens, UniProt P35557).
T1 sequence (P35557 1-465): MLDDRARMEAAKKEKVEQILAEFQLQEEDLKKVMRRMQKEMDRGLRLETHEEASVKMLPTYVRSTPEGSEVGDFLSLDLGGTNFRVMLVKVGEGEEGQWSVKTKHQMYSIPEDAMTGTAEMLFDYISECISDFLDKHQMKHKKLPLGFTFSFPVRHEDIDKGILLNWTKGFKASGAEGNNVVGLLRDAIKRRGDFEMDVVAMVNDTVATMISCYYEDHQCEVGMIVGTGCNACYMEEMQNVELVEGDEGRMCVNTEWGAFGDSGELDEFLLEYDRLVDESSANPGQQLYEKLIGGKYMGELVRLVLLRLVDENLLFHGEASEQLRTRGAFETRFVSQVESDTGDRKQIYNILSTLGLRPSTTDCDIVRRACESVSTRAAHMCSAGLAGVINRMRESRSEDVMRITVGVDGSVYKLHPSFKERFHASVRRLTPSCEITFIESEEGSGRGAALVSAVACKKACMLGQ
The test can be described thus: biochemical.
Usually EC50 stands for the midpoint of the concentration-response curve. As to `CCOC[C@H](Oc1ncnc2c1cnn2-c1ncccc1Cl)C(=O)Nc1ccc(C#N)cn1` [Example 127c, (2S)-2-[1-(3-chloro-2-pyridyl)pyrazolo[4,5-e]pyrimidin-4-yl]oxy-N-(5-cyano-2-pyridyl)-3-ethoxy-propanamide], the EC50 is 670 nM. `CCOC[C@H](Oc1ncnc2c1cnn2-c1ncccc1Cl)C(=O)Nc1ccc(F)cn1` [Example 127d, (2S)-2-[1-(3-chloro-2-pyridyl)pyrazolo[4,5-e]pyrimidin-4-yl]oxy-3-ethoxy-N-(5-fluoro-2-pyridyl)propanamide]: the EC50 came to 670 nM. In the case of `CCOC[C@H](Oc1ncnc2c1cnn2-c1ncccc1Cl)C(=O)Nc1ccccn1` [Example 127e, (2S)-2-[1-(3-chloro-2-pyridyl)pyrazolo[4,5-e]pyrimidin-4-yl]oxy-3-ethoxy-N-(2-pyridyl)propanamide] it was 550 nM. Regarding `CCOC[C@H](Oc1ncnc2c1cnn2-c1ncccc1Cl)C(=O)Nc1ccncn1` [Example 127f, (2S)-2-[1-(3-chloro-2-pyridyl)pyrazolo[4,5-e]pyrimidin-4-yl]oxy-3-ethoxy-N-pyrimidin-4-yl-propanamide], the half-maximal effective concentration (EC50) was found to be 1100 nM. In the case of `CCOC[C@H](Oc1ncnc2c1cnn2-c1ncccc1Cl)C(=O)Nc1ccc(Cl)cn1` [Example 127g, (2S)—N-(5-chloro-2-pyridyl)-2-[1-(3-chloro-2-pyridyl)pyrazolo[4,5-e]pyrimidin-4-yl]oxy-3-ethoxy-propanamide] it was 300 nM. `CC(C)OC[C@H](Oc1ncnc2c1cnn2-c1ncccc1Cl)C(=O)Nc1nc(C#N)cs1` [Example 127h, (2S)-2-[1-(3-chloro-2-pyridyl)pyrazolo[4,5-e]pyrimidin-4-yl]oxy-N-(4-cyanothiazol-2-yl)-3-isopropoxy-propanamide]: the EC50 was 6400 nM. For the compound `CC(C)OC[C@H](Oc1ncnc2c1cnn2-c1ncccc1Cl)C(=O)Nc1ccc(Cl)cn1` [Example 127i, (2S)—N-(5-chloro-2-pyridyl)-2-[1-(3-chloro-2-pyridyl)pyrazolo[4,5-e]pyrimidin-4-yl]oxy-3-isopropoxy-propanamide], the EC50 came out at 360 nM. To `CC(C)OC[C@H](Oc1ncnc2c1cnn2-c1ncccc1Cl)C(=O)Nc1ccc(C#N)cn1` [Example 127j, (2S)-2-[1-(3-chloro-2-pyridyl)pyrazolo[4,5-e]pyrimidin-4-yl]oxy-N-(5-cyano-2-pyridyl)-3-isopropoxy-propanamide] belongs 580 nM. In the case of `CC(C)OC[C@H](Oc1ncnc2c1cnn2-c1ncccc1Cl)C(=O)Nc1ccccn1` [Example 127k, (2S)-2-[1-(3-chloro-2-pyridyl)pyrazolo[4,5-e]pyrimidin-4-yl]oxy-3-isopropoxy-N-(2-pyridyl)propanamide], the EC50 stood at 560 nM.

Turning to `CC(C)OC[C@H](Oc1ncnc2c1cnn2-c1ncccc1Cl)C(=O)Nc1ccc(F)cn1` [Example 127l, (2S)-2-[1-(3-chloro-2-pyridyl)pyrazolo[4,5-e]pyrimidin-4-yl]oxy-N-(5-fluoro-2-pyridyl)-3-isopropoxy-propanamide], the EC50 is 500 nM. `CCOC[C@H](Oc1ncnc2c1cnn2-c1ccncc1C)C(=O)Nc1ccc(Cl)cn1` [Example 128, (2S)—N-(5-Chloropyridin-2-yl)-3-ethoxy-2-[1-(3-methylpyridin-4-yl)pyrazolo[4,5-e]pyrimidin-4-yl]oxypropanamide]: the EC50 worked out at 920 nM. In the case of `CCOC[C@H](Oc1ncnc2c1cnn2-c1ncccc1C)C(=O)Nc1ccc(Cl)cn1` [Example 128a, (2S)—N-(5-chloropyridin-2-yl)-3-ethoxy-2-(1-(3-methylpyridin-2-yl)-1H-pyrazolo[3,4-d]pyrimidin-4-yloxy)propanamide] it was 620 nM; in that of `Cc1ccc(NC(=O)[C@H](COC(C)C)Oc2ncnc3c2cnn3-c2ccccc2S(C)(=O)=O)nc1` [Example 129, (2S)-3-isopropoxy-N-(5-methylpyridin-2-yl)-2-(1-(2-(methylsulfonyl)phenyl)-1H-pyrazolo[3,4-d]pyrimidin-4-yloxy)propanamide], 1300 nM.

With `CCOC[C@H](Oc1ncnc2c1cnn2-c1ccccc1S(C)(=O)=O)C(=O)Nc1ccc(Cl)cn1` [Example 130, (2S)—N-(5-chloropyridin-2-yl)-3-ethoxy-2-(1-(2-(methylsulfonyl)phenyl)-1H-pyrazolo[3,4-d]pyrimidin-4-yloxy)propanamide], the half-maximal effective concentration (EC50) was found to be 1100 nM.

As for `Cc1ccc(NC(=O)[C@H](CCCO)Oc2ncnc3c2cnn3-c2ncccc2Cl)nc1` [Example 131, (2S)-2-[1-(3-chloropyridin-2-yl)pyrazolo[4,5-e]pyrimidin-4-yl]oxy-5-hydroxy-N-(5-methylpyridin-2-yl)pentanamide], the EC50 was determined as 410 nM. In the case of `CCOC[C@H](Oc1ncnc2c1cnn2-c1ccccc1C(F)(F)F)C(=O)Nc1ccc(C#N)cn1` [Example 132, (2S)—N-(5-cyanopyridin-2-yl)-3-ethoxy-2-[1-[2-(trifluoromethyl)phenyl]pyrazolo[4,5-e]pyrimidin-4-yl]oxypropanamide], the EC50 is 470 nM. Regarding `CCOC[C@H](Oc1ncnc2c1cnn2-c1ccccc1C(F)(F)F)C(=O)Nc1cnc(C)cn1` [Example 133, (2S)-3-ethoxy-N-(5-methylpyrazin-2-yl)-2-[1-[2-(trifluoromethyl)phenyl]pyrazolo[4,5-e]pyrimidin-4-yl]oxypropanamide], the half-maximal effective concentration (EC50) is 1100 nM.

As to `CCOC[C@H](Oc1ncnc2c1cnn2-c1ncccc1C(F)(F)F)C(=O)Nc1ccc(Cl)cn1` [Example 134, (2S)—N-(5-chloropyridin-2-yl)-3-ethoxy-2-[1-[3-(trifluoromethyl)pyridin-2-yl]pyrazolo[4,5-e]pyrimidin-4-yl]oxypropanamide], the concentration giving a half-maximal response (EC50) was 440 nM.

With `Cc1ccc(NC(=O)[C@H](COC(C)C)Oc2ncnc3c2cnn3-c2ccncc2C)nc1` [Example 135, (2S)—N-(5-methylpyridin-2-yl)-2-[1-(3-methylpyridin-4-yl)pyrazolo[4,5-e]pyrimidin-4-yl]oxy-3-propan-2-yloxypropanamide], the EC50 is 5900 nM.

On to `Cc1cnc(NC(=O)[C@H](COC2CCC2)Oc2ncnc3c2cnn3-c2ccncc2C)cn1` [Example 136, (2S)-3-cyclobutyloxy-N-(5-methylpyrazin-2-yl)-2-[1-(3-methylpyridin-4-yl)pyrazolo[4,5-e]pyrimidin-4-yl]oxypropanamide], for which the concentration giving a half-maximal response (EC50) is 2100 nM. To `Cc1cnc(NC(=O)[C@H](COC2CCC2)Oc2ncnc3c2cnn3-c2ncccc2C(F)(F)F)cn1` [Example 137, (2S)-3-cyclobutyloxy-N-(5-methylpyrazin-2-yl)-2-[1-[3-(trifluoromethyl)pyridin-2-yl]pyrazolo[4,5-e]pyrimidin-4-yl]oxypropanamide] belongs 350 nM; to `Cc1cnc(NC(=O)[C@H](COC2CCC2)Oc2ncnc3c2cnn3-c2ncc(Cl)cc2C(F)(F)F)cn1` [Example 138, (2S)-2-[1-[5-chloro-3-(trifluoromethyl)pyridin-2-yl]pyrazolo[4,5-e]pyrimidin-4-yl]oxy-3-cyclobutyloxy-N-(5-methylpyrazin-2-yl)propanamide], 810 nM. With `CCOC[C@H](Oc1ncnc2c1cnn2-c1ncccc1Cl)C(=O)Nc1ccc(S(C)(=O)=O)cn1` [Example 139, (2S)-2-(1-(3-chloropyridin-2-yl)-1H-pyrazolo[3,4-d]pyrimidin-4-yloxy)-3-ethoxy-N-(5-(methylsulfonyl)pyridin-2-yl)propanamide], the EC50 was 1400 nM. In the case of `Cc1cnc(NC(=O)[C@H](COC2CCC2)Oc2ncnc3c2cnn3-c2ccccc2S(C)(=O)=O)cn1` [Example 140, (2S)-3-cyclobutoxy-N-(5-methylpyrazin-2-yl)-2-(1-(2-(methylsulfonyl)phenyl)-1H-pyrazolo[3,4-d]pyrimidin-4-yloxy)propanamide] it was 1200 nM. Consider `Cc1cnc(NC(=O)[C@H](COC2CCC2)Oc2ncnc3c2cnn3-c2ncccc2C)cn1` [Example 141, (2S)-3-cyclobutoxy-N-(5-methylpyrazin-2-yl)-2-(1-(3-methylpyridin-2-yl)-1H-pyrazolo[3,4-d]pyrimidin-4-yloxy)propanamide], for which the EC50 came out at 340 nM. For the compound `Cc1cnc(NC(=O)[C@H](COC2CCC2)Oc2ncnc3c2cnn3-c2ccccc2)cn1` [Example 142, (S)-3-cyclobutoxy-N-(5-methylpyrazin-2-yl)-2-(1-phenyl-1H-pyrazolo[3,4-d]pyrimidin-4-yloxy)propanamide], the EC50 was 2400 nM.

For `Cc1ccc(NC(=O)[C@H](CCO)Oc2ncnc3c2cnn3-c2ncccc2Cl)nc1` [Example 143, (2S)-2-[1-(3-chloro-2-pyridyl)pyrazolo[4,5-e]pyrimidin-4-yl]oxy-4-hydroxy-N-(5-methyl-2-pyridyl)butanamide], the 50% effective concentration (EC50) turned out to be 180 nM. Turning to `Cc1cnc(NC(=O)[C@H](CCO)Oc2ncnc3c2cnn3-c2ncccc2Cl)cn1` [Example 143a, (2S)-2-[1-(3-chloro-2-pyridyl)pyrazolo[4,5-e]pyrimidin-4-yl]oxy-4-hydroxy-N-(5-methylpyrazin-2-yl)butanamide], the half-maximal effective concentration (EC50) came out at 2600 nM. To `O=C(Nc1ccc(Cl)cn1)[C@H](CCO)Oc1ncnc2c1cnn2-c1ncccc1Cl` [Example 143b, (2S)-N-(5-chloro-2-pyridyl)-2-[1-(3-chloro-2-pyridyl)pyrazolo[4,5-e]pyrimidin-4-yl]oxy-4-hydroxy-butanamide] belongs 260 nM; to `O=C(Nc1ccccn1)[C@H](CCO)Oc1ncnc2c1cnn2-c1ncccc1Cl` [Example 143c, (2S)-2-[1-(3-chloro-2-pyridyl)pyrazolo[4,5-e]pyrimidin-4-yl]oxy-4-hydroxy-N-(2-pyridyl)butanamide], 610 nM.
